According to US20190375778A1, “ADENOSINE DERIVATIVES FOR USE IN THE TREATMENT OF CANCER” (NuCana plc, priority 2016, published 2019):
Like-named read-outs stand apart in the source and are kept apart here.

Experiments:
HL-60 cell line = experiment: Intracellular 8-Cl-ATP/ATP by LC-MS/MS, HL-60; type: cell-based; conditions: for difference in intracellular accumulation of 8-Cl-ATP on inhibiting hENT1: HL-60, with NBTI
Description: (§1) Cell lines with 3×10^6 cells/ml were used. Cells were treated with 1 μl of 20 μM of each 8-Cl-A, compound A, compound B and compound D and incubated for 2 hours at 37° C. with 5% CO2. After incubation, the cells were centrifuged (ambient, 1200 rpm, 5 minutes), the supernatant was removed, and the pellet was washed with lml of PBS and centrifuged (ambient, 1200 rpm, 5 minutes). The supernatant was removed, the pellet was reconstituted in 100 μl of PBS and 100 μl of 0.8M perchloric acid. This was then centrifuged (ambient, 1200 rpm, 5 minutes) and 180 μl of the supernatant was transferred to new tubes and stored at −80° C. until time of analysis.
(§2) For inhibitor studies the cell lines were treated in the same way as described above but before treatment with drugs, a number of inhibitors were added: • 1) Nitrobenzylthioinosine (NBTI) (Sigma-Aldrich, St. Louis, Mo.) inhibits hENT1. • 2) A-134974 dihydrochloride hydrate (Sigma-Aldrich, St. Louis, Mo.) inhibits adenosine kinase. • 3) EHNA hydrochloride (Sigma-Aldrich, St. Louis, Mo.) inhibits adenosine deaminase.
(§3) Cells were treated with 1 μl of 10 μM of each inhibitor and left for 5 minutes before adding the drug. The cells were then incubated for 2 hours at 37° C. with 5% CO2.
(§4) The analytes were resolved using an ultra-performance liquid chromatography system (Accela UPLC, Thermo Scientific, UK) equipped with a Biobasic A×5 μm, 50×2.1 mm column (Thermo Electron Corporation, Murrieta, Calif., USA) and mobile phase consisting of a mixture of 10 mM NH4Ac in ACN/H2O (30:70 v/v), pH6.0 (A), and 1 mM NH4Ac in ACN/H2O (30:70 v/v), pH10.5 (B). The mobile phase gradient was employed, comprising: buffer A=95% at 0-0.5 minutes, from 95 to 0% over 1.25 minutes, held at 0% for 1.75 minutes, from 0-95% over 0.1 minutes, ending with 95% for 2.9 minutes, all at a flow rate of 500 μl/min.
(§5) For compounds detection a triple stage quadrupole Vantage mass spectrometry system (Thermo Scientific, UK) equipped with an electrospray ion source was used. Samples were analysed in the Multiple Reaction Monitoring, negative ion modes at spray voltage 3000V.
(§6) The dose-response curves of cytotoxicity of the drugs was determined using non-linear regression analysis of percentage cell viability versus concentration and EC50 values were obtained. The intracellular assay was conducted in five repeats for each condition. Intracellular assay was determined using paired T test (two-tailed) analysis of 8-ChloroATP/ATP concentration and p values were obtained. Drug stability in human plasma was determined using two-way ANOVA analysis. For all the analysis, Prism Software program (GraphPad Software) was used.

CTS cell line = experiment: Intracellular 8-Cl-ATP/ATP by LC-MS/MS, CTS; type: cell-based; conditions: for difference in intracellular accumulation of 8-Cl-ATP on inhibiting hENT1: with NBTI
Description: as §1, §2, §3, §4, §5, §6

K-562 cell line = experiment: Intracellular 8-Cl-ATP/ATP by LC-MS/MS, K-562; type: cell-based; conditions: for difference in intracellular accumulation of 8-Cl-ATP on inhibiting hENT1: K-562, with NBTI
Description: as §1, §2, §3, §4, §5, §6

Lovo = experiment: MTT cytotoxicity assay, Lovo; type: cell-based; conditions: Homo sapiens, 96 h compound exposure, read-out: absolute IC50, Lovo
Source text: (§7) Lovo: cell line derived from a metastatic site in a patient with colon cancer MCF7: human oestrogen sensitive mammary epithelial cell line PC3: human prostate cancer cell line A549: cancerous lung tissue derived cells L1210: lymphoblast cell line derived from a mouse with lymphocytic leukaemia FM3A: mammary carcinoma murine cells CEM: human T-lymphoblasts, derived from the blood of a patient with acute lymphoblastic leukaemia HeLa: epithelial cells from a patient with cervical adenocarcinoma
(§8) Anti-tumour evaluation in MCF7, LoVo, A549 and PC3 cell lines was performed by MTT assay. Compounds were prepared as 0.1-100 mM stock solutions dissolved in DMSO and stored at −20° C. Cells were seeded into 96-well microtitre plates at a density of 5×10^3 cells per well and allowed 24 hours to adhere. Decimal compound dilutions were prepared in medium immediately prior to each assay (final concentration 0.1-100 μM). Experimental medium was DMEM+10% FCS (PC3 and Lovo) or RPMI+10% heat inactivated FCS (A549 and MCF7). Following 96 h compound exposure at 37° C., 5% CO2, MTT reagent (Sigma Aldrich) was added to each well (final concentration 0.5 mg/ml). Incubation at 37° C. for 4 h allowed reduction of MTT by viable cells to an insoluble formazan product. MTT was removed and formazan solubilised by addition of 10% Triton X-100 in PBS. Absorbance was read on a Tecan Sunrise spectrophotometer at 540 nm as a measure of cell viability; thus inhibition relative to control was determined (IC50).

PC3 = experiment: MTT cytotoxicity assay, PC3; type: cell-based; conditions: Homo sapiens, PC-3, 96 h compound exposure, read-out: absolute IC50, PC3
Source text: as §7, §8

A549 = experiment: MTT cytotoxicity assay, A549; type: cell-based; conditions: Homo sapiens, 96 h compound exposure, read-out: absolute IC50, A549
Source text: as §7, §8

MDAMB231 = experiment: CellTiterGlo viability assay, MDAMB231; type: cell-based, Human; conditions: for IC50: Homo sapiens, read-out: IC50 MDAMB231
Description: (§9) In vitro viability assay were performed to assess the effects of compounds on cell viability in selected cell lines over ˜72 hrs using the CellTiterGlo (CTG, Promega-G7573) assay. The tests were performed in duplicates with treatment of compounds at 9 points, 3.16 folds titration in 96 well plates over ˜72 hrs. The compound starting concentrations were 198 μM. Cell viability assay using CellTiterGlo in 96-well plate were performed. Compound treatment 72 hrs, standard growth conditions, duplicates. Compounds were dissolved to 40 mM with thawed […]. Compounds were serially diluted at 3.16 fold in thawed DMSO, and warmed to 37° C. before being dissolved in media (2 μl+200 μl). After compounds were dissolved in media, media containing compounds were warmed to 37° C. in incubator and then compounds in media were added to cell plates (50 μl+50 μl) in duplicates. The compounds' final concentrations were from […] to 19.9 nM. All compound solubilities were checked and recorded again, then the plates were transferred to CO2 tissue culture incubator immediately and incubated for 3 days. DMSO final concentration is 0.5%.

CAL27 = experiment: Viability assay, CAL27; type: cell-based
Description: as §9

T24/83 = experiment: Viability assay, T24/83; type: cell-based
Description: as §9

| SMILES | difference in intracellular accumulation of 8-Cl-ATP on inhibiting hENT1 (HL-60 cell line) | difference in intracellular accumulation of 8-Cl-ATP on inhibiting hENT1 (CTS cell line) | difference in intracellular accumulation of 8-Cl-ATP on inhibiting hENT1 (K-562 cell line) | IC50 (Lovo) | IC50 (PC3) | IC50 (A549) | difference in intracellular accumulation of 8-Cl-ATP on blocking adenosine kinase (HL-60 cell line; HL-60, with A-134974) | difference in intracellular accumulation of 8-Cl-ATP on inhibiting adenosine kinase (CTS cell line; with A-134974) | difference in 8-Cl-ATP concentration on inhibiting adenosine kinase (K-562 cell line; K-562, with A-134974) | MI% MDAMB231 (MDAMB231; CellTiterGlo, 72 hrs) | IC50 (MDAMB231; MDA-MB-231, 72 h) | IC50 (MDAMB231; MDA-MB-231, CellTiterGlo, 72 hrs) | Top in. % CAL27 (CAL27) | EC50 (CAL27; Homo sapiens, CAL-27, read-out: Ab EC50 (μM) CAL27) | Top in. % T24/83 (T24/83) | EC50 (T24/83; T24/83, read-out: Ab EC50 (μM) T24/83) | 8-Cl-ATP/ATP ratio after inhibiting adenosine kinase (HL-60 cell line; HL-60, with A-134974) | 8-Cl-ATP/ATP ratio after inhibiting adenosine kinase (CTS cell line; with A-134974) | 8-Cl-ATP/ATP ratio after inhibiting adenosine kinase (K-562 cell line; K-562, with A-134974) |
| --- | --- | --- | --- | --- | --- | --- | --- | --- | --- | --- | --- | --- | --- | --- | --- | --- | --- | --- | --- |
| C[C@H](NP(=O)(OC[C@H]1O[C@@H](n2c(Cl)nc3c(N)ncnc32)C(O)C1O)Oc1cccc2ccccc12)C(=O)OCc1ccccc1 (stereo partly drawn) [Compound D, (2S)-Benzyl 2-(((((2R,3S,4R,5R)-5-(6-amino-8-chloro-9H-purin-9-yl)-3,4-dihydroxy-tetrahydrofuran-2-yl)methoxynaphthalene-1-yloxy)phosphoryl)amino)propanoate] | did not produce significant difference | did not produce significant difference | did not produce significant difference | – | – | – | – | – | – | – | – | – | – | – | – | – | – | – | – |
| Nc1ncnc2c1nc(Cl)n2[C@@H]1O[C@H](COP(=O)(NCC(=O)OC2CCCCC2)Oc2ccccc2)[C@@H](O)[C@H]1O (mixture of isomers) [Compound A, Cyclohexyl 2-(((((2R,3S,4R,5R)-5-(6-amino-8-chloro-9H-purin-9-yl)-3,4-dihydroxy-tetrahydrofuran-2-yl)methoxy)(phenoxy)phosphoryl)amino)acetate] | did not produce significant difference | did not produce significant difference | did not produce significant difference | 0.1 to 5 µM | 15 to 100 µM | 15 to 100 µM | did not produce significant difference | did not produce significant difference | did not produce significant difference | – | – | – | – | – | – | – | – | – | – |
| Nc1ncnc2c1nc(Cl)n2[C@@H]1O[C@H](COP(=O)(NCC(=O)OCc2ccccc2)Oc2ccccc2)[C@@H](O)[C@H]1O (mixture of isomers) [Compound B, Benzyl 2-(((((2R,3S,4R,5R)-5-(6-amino-8-chloro-9H-purin-9-yl)-3,4-dihydroxytetra-hydrofuran-2-yl)methoxy)(phenoxy)phosphoryl)amino)acetate] | did not produce significant difference | did not produce significant difference | did not produce significant difference | 0.1 to 5 µM | 0.1 to 5 µM | 5 to 15 µM | – | did not produce significant difference | – | 76% | 5 to 15 µM | – | – | – | – | – | – | – | – |
| Nc1ncnc2c1nc(Cl)n2[C@@H]1O[C@H](CO)[C@@H](O)[C@H]1O [8-chloroadenosine, 8-Chloroadenosine, reference compound] | – | – | – | 0.1 to 5 µM | 0.1 to 5 µM | 0.1 to 5 µM | – | – | – | 74% | – | 0.1 to 5 µM | 76.5% | 1.73 µM | 77.5% | 2 µM | almost zero | almost zero | almost zero |
| C[C@H](NP(=O)(OC[C@H]1O[C@@H](n2c(Cl)nc3c(N)ncnc32)[C@H](O)[C@@H]1O)Oc1ccccc1)C(=O)OCc1ccccc1 (mixture of isomers) [C, (2S)-Benzyl 2-(((((2R,3S,4R,5R)-5-(6-amino-8-chloro-9H-purin-9-yl)-3,4-dihydroxy-tetrahydrofuran-2-yl)methoxy)(phenoxy)phosphoryl)amino)propanoate] | – | – | – | 0.1 to 5 µM | 0.1 to 5 µM | 15 to 100 µM | – | – | – | – | – | – | – | – | – | – | – | – | – |
| CC(C)C[C@H](NP(=O)(OC[C@H]1O[C@@H](n2c(Cl)nc3c(N)ncnc32)C(O)C1O)Oc1ccccc1)C(=O)OCc1ccccc1 (stereo partly drawn) [V, 5′-([(Benzyloxy-L-leucin-N-yl)-phenyl]-phosphatyl) 8-chloroadenosine] | – | – | – | 0.1 to 5 µM | 0.1 to 5 µM | 0.1 to 5 µM | – | – | – | 99% | 15 to 100 µM | – | – | – | – | – | – | – | – |
